# Measured values taken from publication PMC13360702, “An Agonist/Antagonist Photo‐Switchable Vitamin D Mimetic Enables Bidirectional Optical Control of VDR” (Angewandte Chemie (International Ed. in English), 2026).
# Biological target: T1, VDR (Homo sapiens, UniProt P11473)
# T1 construct: -CMV-VDR-LBD coding for the hinge region and; expressed in transfected cells; host or cells: HEK293T
# T1 sequence (P11473 127-423 limits assumed): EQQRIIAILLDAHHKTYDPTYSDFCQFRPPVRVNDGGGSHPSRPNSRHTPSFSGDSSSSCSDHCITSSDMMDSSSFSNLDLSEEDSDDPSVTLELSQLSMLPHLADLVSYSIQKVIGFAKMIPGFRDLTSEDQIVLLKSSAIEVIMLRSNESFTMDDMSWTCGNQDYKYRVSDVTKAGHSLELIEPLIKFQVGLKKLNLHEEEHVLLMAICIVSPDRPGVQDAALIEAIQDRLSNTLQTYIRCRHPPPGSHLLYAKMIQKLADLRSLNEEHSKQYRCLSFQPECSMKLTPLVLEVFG
# Assay: fluorescent (mCherry) reporter gene assay, in‐cell VDR activation over time
# Type: cell-based
# Settings: 1 µM
# Procedure: To evaluate the potential of 10 for in‐cell control of VDR activity, we determined its light‐dependent effect over time (Figure 3a) using VDR‐induced expression of the fluorescent protein mCherry as reporter for non‐invasive monitoring. Under illumination with a Cell‐Disco [24]
# FIGURE 3 Optical control of VDR activity with photo‐vitD (10). (a) 10 (1 µM) enabled light‐dependent in‐cell activation of VDR in a fluorescent (mCherry) reporter gene assay. Gray curve: dark; blue curve: Cell‐Disco (370 nm; 100 ms/10 s); yellow curve: dark for 10 h, then Cell‐Disco (370 nm); magenta curve: Cell‐Disco (370 nm) for 10 h, then Cell‐Disco (450 nm). Lines are the mean, shadows are S.E.M.; n = 6. (b–d) Phenotypic model of bone formation using human […] (ASC52telo hTERT cells) and cyclic treatment with dexamethasone, 2‐phospho‐L‐ascorbic acid, and glycerol 2‐phosphate over 15 days to induce osteogenesis. Alkaline phosphatase (ALP) activity (b) and von Kossa staining of hydroxyapatite (c; representative photomicrographs in d) were used as markers of osteogenesis. Experiments were performed in the dark (gray bars) and using a Cell‐Disco (370 nm, 100 ms/10 s; blue bars). Data are the mean±SD, n = 6. * p<0.05, ** p<0.01, *** p<0.001 (vs. respective dark or illuminated DMSO (diff.) ctrl or as indicated; ANOVA with Dunnett's multiple comparisons test).
# Gal4-hybrid reporter gene assays. […] After 14−16 h incubation, luciferase activity was measured using the Dual -Glo Luciferase Assay System (Promega) according to the manufacturer’s protocol on a Tecan Spark luminometer (Tecan Deutschland GmbH, Crailsheim, Germany). […] EC 50 and IC50 values were calculated by fitting dose−response data with the equation “[agonist] vs response − variable slope (four parameters)” or “[inhibitor] vs response − variable slope (four parameters)” in GraphPad Prism (version 7, GraphPad software, La Jolla, CA, USA). […]
# Fluorescent Reporter Gene Assay. The fluorescence reporter gene assay was performed in HEK293T […]
smiles,measurement,setting,value
CCCc1cc(C(O)(CC)CC)ccc1-c1ccc(/N=N/c2ccc3cc(C(=O)O)ccc3c2)cc1C [compound 10],VDR‐induced mCherry fluorescence over time,"Cell‐Disco 370 nm for 10 h, then switched back to (E)‐state with 450 nm light",the increase in mCherry fluorescence ceased
same,VDR‐induced mCherry fluorescence over time,"Cell‐Disco 370 nm, 100 ms/10 s ((Z)‐state)",mCherry fluorescence constantly increased
same,VDR‐induced mCherry fluorescence over time,without illumination (dark),no increase in fluorescence
